Patent EP3277384B1, “SOLID ORAL CARE COMPOSITIONS” (Unilever IP Holdings B.V., priority 2015, dated 2016)

Experiment: Approximate solubility of zinc salts
Settings: at 25C

Substance: Zinc oxide
- Approximate Solubility: 5 µg/mL
